Data reported in PubChem BioAssay AID1963866 (Molecular Pharmacology Branch, DTP, NCI, 2024).

Tested on: PDC KRAS tumor spheroids with HUVEC/MSC, viability
Experiment: Anticancer human tumor 349418-098-R-PDC patient-derived lung adenocarcinoma cell line growth inhibition [KRAS2]
Settings: for IC50: curve of first compound; for viability, T/C: stronger effect = lower value
Summary of the method: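 Combination screen of spheroid viability in tumor-cell co-cultures with endothelial (HUVEC) and mesenchymal stem cell stroma. Each agent was tested in half-log dilutions, topping at clinical Cmax or at 10 microM without a known Cmax.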

[1] = second compound 0.1 µM, first compound 0.01 µM
[2] = second compound 0.1 µM, first compound 0.0316 µM
[3] = second compound 0.1 µM, first compound 0.1 µM
[4] = second compound 0.1 µM, first compound 0.316 µM
[5] = second compound 0.1 µM, first compound 1 µM
[6] = second compound 0.1 µM, first compound 3.16 µM
[7] = second compound 0.316 µM, first compound 0.01 µM
[8] = second compound 0.316 µM, first compound 0.0316 µM
[9] = second compound 0.316 µM, first compound 0.1 µM
[10] = second compound 0.316 µM, first compound 0.316 µM
[11] = second compound 0.316 µM, first compound 1 µM
[12] = second compound 0.316 µM, first compound 3.16 µM
[13] = second compound 1 µM, first compound 0.01 µM
[14] = second compound 1 µM, first compound 0.0316 µM
[15] = second compound 1 µM, first compound 0.1 µM
[16] = second compound 1 µM, first compound 0.316 µM
[17] = second compound 1 µM, first compound 1 µM
[18] = second compound 1 µM, first compound 3.16 µM
[19] = second compound 3.16 µM, first compound 0.01 µM
[20] = second compound 3.16 µM, first compound 0.0316 µM
[21] = second compound 3.16 µM, first compound 0.1 µM
[22] = second compound 3.16 µM, first compound 0.316 µM
[23] = second compound 3.16 µM, first compound 1 µM
[24] = second compound 3.16 µM, first compound 3.16 µM
[25] = second compound 10 µM, first compound 0.01 µM
[26] = second compound 10 µM, first compound 0.0316 µM
[27] = second compound 10 µM, first compound 0.1 µM
[28] = second compound 10 µM, first compound 0.316 µM
[29] = second compound 10 µM, first compound 1 µM
[30] = second compound 10 µM, first compound 3.16 µM
[31] = second compound 0.1 µM, first compound 10 µM
[32] = second compound 0.316 µM, first compound 10 µM
[33] = second compound 1 µM, first compound 10 µM
[34] = second compound 3.16 µM, first compound 10 µM
[35] = second compound 10 µM, first compound 10 µM
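Further: spheroids exposed to compounds for seven days before readout.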

Row | SMILES | IC50 (second compound 0.1 µM) [nM] | IC50 (second compound 0.316 µM) [nM] | IC50 (second compound 1 µM) [nM] | IC50 (second compound 3.16 µM) [nM] | IC50 (second compound 10 µM) [nM] | viability, T/C [2] [%] | viability, T/C [3] [%] | viability, T/C [4] [%] | viability, T/C [5] [%] | viability, T/C [8] [%] | viability, T/C [9] [%] | viability, T/C [10] [%] | viability, T/C [11] [%] | viability, T/C [14] [%] | viability, T/C [15] [%] | viability, T/C [16] [%] | viability, T/C [17] [%] | viability, T/C [20] [%] | viability, T/C [21] [%] | viability, T/C [22] [%] | also measured
1 | CC1COCCN1c1cc(-c2ccnn2C)c2ccnc(-c3ccn[nH]3)c2n1 (stereo not given) + COc1cc2nc(C)nc(NC(C)c3cc(N)cc(C(F)(F)F)c3)c2cc1OC1CCOC1 | < 10 | 43.8 | 48.5 | 42.7 | < 10 | 8.3 | 5.7 | 5.49 | 6 | 65.5 | 10.9 | 6.49 | 5.47 | 71.2 | 13.9 | 11.7 | 7.84 | 63.1 | 12.8 | 7.88 | viability, T/C [1]: 5.36%; viability, T/C [6]: 5.72%; viability, T/C [7]: 170%; viability, T/C [12]: 7.16%; viability, T/C [13]: 167%; viability, T/C [18]: 7.72%; viability, T/C [19]: 146%; viability, T/C [23]: 6.55%; viability, T/C [24]: 9.36%; viability, T/C [25]: 36.6%; viability, T/C [26]: 14.1%; viability, T/C [27]: 8.5%; viability, T/C [28]: 6.86%; viability, T/C [29]: 7.4%; viability, T/C [30]: 5.53%
2 | CCN1CCN(Cc2ccc(Nc3ncc(F)c(-c4cc(F)c5nc(C)n(C(C)C)c5c4)n3)nc2)CC1 + COc1cc2nc(C)nc(NC(C)c3cc(N)cc(C(F)(F)F)c3)c2cc1OC1CCOC1 | < 3.16 | 5.01 | 5.63 | < 3.16 | < 3.16 | 25.5 | 20.2 | 14.2 | 5.42 | 16.6 | 16.1 | 13.6 | 4.29 | 14.2 | 13.4 | 10.5 | 4.38 | 14.5 | 11.7 | 8.46 | viability, T/C (second compound 0.1 µM, first compound 0.00316 µM): 49.7%; viability, T/C [1]: 25.8%; viability, T/C (second compound 0.316 µM, first compound 0.00316 µM): 61.8%; viability, T/C [7]: 33%; viability, T/C (second compound 1 µM, first compound 0.00316 µM): 69.3%; viability, T/C [13]: 31.1%; viability, T/C (second compound 3.16 µM, first compound 0.00316 µM): 40.8%; viability, T/C [19]: 25%; viability, T/C [23]: 1.57%; viability, T/C (second compound 10 µM, first compound 0.00316 µM): 11.7%; viability, T/C [25]: 8.02%; viability, T/C [26]: 4.11%; viability, T/C [27]: 2.43%; viability, T/C [28]: 0.61%; viability, T/C [29]: 0.15%
3 | CCNC(=O)CC1N=C(c2ccc(Cl)cc2)c2cc(OC)ccc2-n2c(C)nnc21 (stereo not given) + COc1cc2nc(C)nc(NC(C)c3cc(N)cc(C(F)(F)F)c3)c2cc1OC1CCOC1 | 93 | 106 | 99 | 56.5 | < 31.6 | 80 | 48 | 20.6 | 7.27 | 105 | 51.4 | 21.9 | 7.39 | 85.2 | 49.9 | 16.4 | 6.15 | 65.5 | 34.8 | 13.5 | viability, T/C [6]: 2.39%; viability, T/C [31]: 0.58%; viability, T/C [12]: 2.09%; viability, T/C [32]: 0.7%; viability, T/C [18]: 1.76%; viability, T/C [33]: 0.68%; viability, T/C [23]: 5.23%; viability, T/C [24]: 1.41%; viability, T/C [34]: 0.77%; viability, T/C [26]: 17%; viability, T/C [27]: 10.3%; viability, T/C [28]: 6.19%; viability, T/C [29]: 1.96%; viability, T/C [30]: 0.42%; viability, T/C [35]: 0.33%
4 | Cn1nccc1Nc1nccc(-c2cc3c(s2)C(C)(C)N(CCN2CCOCC2)C3=O)n1 + COc1cc2nc(C)nc(NC(C)c3cc(N)cc(C(F)(F)F)c3)c2cc1OC1CCOC1 | 52.4 | 37.4 | 36.3 | < 31.6 | < 31.6 | 71.1 | 22.4 | 12.5 | 7.65 | 55.6 | 19 | 12.2 | 6.27 | 53.4 | 24.2 | 8.8 | 7.31 | 41.8 | 19.1 | 7.42 | viability, T/C [6]: 6.07%; viability, T/C [31]: 4.14%; viability, T/C [12]: 6.54%; viability, T/C [32]: 4.93%; viability, T/C [18]: 5.44%; viability, T/C [33]: 4.32%; viability, T/C [23]: 5.91%; viability, T/C [24]: 4.66%; viability, T/C [34]: 4.79%; viability, T/C [26]: 15.1%; viability, T/C [27]: 7.62%; viability, T/C [28]: 4.31%; viability, T/C [29]: 3.93%; viability, T/C [30]: 2.92%; viability, T/C [35]: 2.13%
